In brackets after ≈: the same amount, converted by molar mass.
Legend:
[1] = tested on: LoVo (human colon adenocarcinoma); test: in vitro cytotoxicity (colony growth inhibition) against LoVo cells; type: cell-based; conditions: concentration inhibiting by 50% colony growth, tested as hydrochlorides
Description: (§1) All compounds were tested as their hydrochlorides.

LoVo/DX cells = test: in vitro cytotoxicity (colony growth inhibition) against LoVo/DX cells; type: cell-based, human; conditions: for Cytotoxicity after 4h of treatment (IC50) LoVo/DX: concentration inhibiting by 50% colony growth, tested as hydrochlorides; for R.I. = Resistance Index = (IC50 LoVo/DX)/(IC50 LoVo): ratio of IC50 LoVo/DX to IC50 LoVo
Description: as §1

in vivo [2] = conditions: mouse, in vivo, iv
Description: (§2) The biological activity of the compounds according to the invention was tested in vitro against LoVo (human colon adenocarcinoma) and LoVo/DX cells in comparison with doxorubicin. The compounds of the invention were also tested in vivo against P388 and P388/DX murine leukemia in comparison with doxorubicin. All compounds were tested as their hydrochlorides.

P388 = test: in vivo; conditions: for %T/C (Median survival time of treated mice/median survival time of controls x 100): P388 (iv, iv+1), at optimal dose
Description: as §2

in vivo [3] = conditions: mouse, in vivo, iv; remark: listed apart in the source
Description: as §2

P388/DX Johnson = test: in vivo; conditions: for %T/C (Median survival time of treated mice/median survival time of controls x 100): P388/DX Johnson (iv, iv+1), at optimal dose
Description: as §2

Row | SMILES | Cytotoxicity after 4h of treatment (IC50) LoVo [1] | Cytotoxicity after 4h of treatment (IC50) LoVo/DX (LoVo/DX cells) | R.I. = Resistance Index = (IC50 LoVo/DX)/(IC50 LoVo) (LoVo/DX cells) | MTD (in vivo [2]) | %T/C (Median survival time of treated mice/median survival time of controls x 100) (P388) | MTD (in vivo [3]) | %T/C (Median survival time of treated mice/median survival time of controls x 100) (P388/DX Johnson) | IC50 ([1]; Homo sapiens, LoVo, 4h of treatment, read-out: Cytotoxicity after 4h of treatment (IC50) LoVo) | O.D. (Optimal dose: maximum tolerated dose (LD10)) (P388; P388 (iv, iv+1): tumor implanted intravenously, treatment begins one day after implantation) | O.D. (Optimal dose: maximum tolerated dose (LD10)) (P388/DX Johnson; P388/DX Johnson (iv, iv+1): tumor implanted intravenously, treatment begins one day after implantation)
1 | CC(=O)[C@]1(O)Cc2c(O)c3c(c(O)c2[C@@H](O[C@H]2C[C@H](N4CCOCC4)[C@@H](O)[C@H](C)O2)C1)C(=O)c1c(F)cccc1C3=O [Ie, 4-demethoxy-4-fluoro-3′-deamino-3′-(4-morpholinyl)-4′-epi-daunorubicin] | 0.047 µg/mL | 0.168 µg/mL | 3.6 | 6.3 mg/kg | 411% | 6.3 mg/kg | 244% | – | – | –
2 | C[C@@H]1O[C@@H](O[C@H]2C[C@](O)(C(=O)CO)Cc3c2cc2c(c3O)C(=O)c3cccc(O)c3C2=O)C[C@H](N2CCOCC2)[C@@H]1O [Ia, 4-demethyl-6-deoxy-3′-deamino-3′-(4-morpholinyl) doxorubicin] | 0.0355 µg/mL | 0.1654 µg/mL | 4.7 | – | 222% | – | 183% | – | – | –
3 | CC(=O)[C@]1(O)Cc2c(O)c3c(c(O)c2[C@@H](O[C@H]2C[C@H](N4CCOCC4)[C@H](O)[C@H](C)O2)C1)C(=O)c1c(N)cccc1C3=O [Ib, 4-demethoxy-4-amino-3′-deamino-3′-(4-morpholinyl)-daunorubicin] | 0.0137 µg/mL | 0.0285 µg/mL | 2.1 | – | 156% | – | 167% | – | – | –
4 | COc1cccc2c1C(=O)c1c(O)c3c(c(O)c1C2=O)C[C@@](O)(C(=O)CO)C[C@@H]3O[C@H]1C[C@H](N)[C@H](O)[C@H](C)O1 [Doxorubicin, reference compound] | – | – | 36 | 13 mg/kg | 250% | 13 mg/kg | 100% | 0.06 µg/mL (≈ 0.11 µM) | – | –
5 | COC1CN(C2CC(OC3CC(O)(C(C)=O)Cc4c(O)c5c(c(O)c43)C(=O)c3ccccc3C5=O)OC(C)C2O)CCO1 (centres unmarked) [Il, 4-demethoxy-3′-deamino-3′-(2-methoxy-4-morpholinyl)-daunorubicin] | 0.0002 µg/mL | 0.0023 µg/mL | 11.5 | – | 133% | – | 161% | – | 0.14 mg/kg | 0.36 mg/kg
6 | CC(=O)[C@]1(O)Cc2c(O)c3c(c(O)c2[C@@H](O[C@H]2C[C@H](N4CCOCC4)[C@@H](O)[C@H](C)O2)C1)C(=O)c1c(N)cccc1C3=O [Ic, 4-demethoxy-4-amino-3′-deamino-3′-(4-morpholinyl)-4′-epi-daunorubicin] | 0.036 µg/mL | 0.0485 µg/mL | 1.3 | – | – | 20 mg/kg | 195% | – | – | –

From patent publication EP0387661A2, “New 3'-(4-morpholinyl)- and 3'-(2-methoxy-4-morpholinyl)-anthracycline derivatives” (priority 1989, dated 1990)
